In patent US9352015B2, “Antimicrobial peptides” (priority 2009, dated 2016):
Values after ≈ are worked out from the molar mass of the structure shown. Like-named read-outs stand apart in the source and are kept apart here.

Tested on: Methicillin Resistant Staphylococcus aureus (MRSA) and Staphylococcus aureus
Type: cell-based
Settings: Mueller Hinton medium; for MIC: 24 hours at 37° C.
Outline: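 MICs by microtiter broth dilution in triplicate determinations, mostly LB no-salt medium (sometimes MH or BHI), final inoculum 5×10^5 CFU/ml (1×10^5 CFU/ml in the MH variant), 24 h at 37 °C. MIC is the lowest peptide concentration inhibiting growth; tested on 20 clinical MRSA and S. aureus isolates.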

CC[C@@H](C)[C@@H](NC(=O)[C@@H](C)NC(=O)[C@@H](CCCCN)NC(=O)[C@@H](CC(C)C)NC(=O)[C@@H](C)NC(=O)[C@H](NC(=O)[C@@H](Cc1c[nH]cn1)NC(=O)[C@@H](CC(C)C)NC(=O)[C@H](NC(=O)[C@H](NC(=O)[C@@H](CCCCN)NC(=O)[C@@H](CCCCN)NC(=O)[C@@H](C)NC(=O)[C@@H](CO)NC(=O)[C@@H](CCCCN)NC(=O)[C@@H](Cc1ccccc1)NC(=O)[C@H](NC(=O)[C@@H](CCCCN)NC(=O)[C@@H](CC(C)C)NC(=O)[C@@H](Cc1ccccc1)NC(=O)[C@@H](CO)NC(=O)[C@@H](CCCCN)NC(=O)[C@@H](Cc1c[nH]c2ccccc12)NC(=O)[C@@H](CCCCN)NC(C)=O)[C@H](C)O)[C@H](C)O)C(C)C)[C@H](C)O)C(=O)N[C@H](CO)C(=O)N[C@H](CO)C(N)=O [Peptide D1, Ac-KWKSFLKTFKSAKKTVLHTALKAISS-amide]
MIC (S. aureus strain 1): 23.9 µM (≈ 71.5 µg/mL) | MIC (S. aureus strain 2, R (MRSA resistant to Oxacillin)): 12.0 µM (≈ 35.9 µg/mL) | MIC (S. aureus strain 3): 23.9 µM (≈ 71.5 µg/mL) | MIC (S. aureus strain 4, R (MRSA resistant to Oxacillin)): 23.9 µM (≈ 71.5 µg/mL) | MIC (S. aureus strain 5): 23.9 µM (≈ 71.5 µg/mL) | MIC (S. aureus strain 6): 23.9 µM (≈ 71.5 µg/mL) | MIC (S. aureus strain 7, R (MRSA resistant to Oxacillin)): 3.0 µM (≈ 8.97 µg/mL) | MIC (S. aureus strain 8): 95.5 µM (≈ 286 µg/mL) | MIC (S. aureus strain 9, R (MRSA resistant to Oxacillin)): 12.0 µM (≈ 35.9 µg/mL) | MIC (S. aureus strain 10): 12.0 µM (≈ 35.9 µg/mL) | MIC (S. aureus strain 11, R (MRSA resistant to Oxacillin)): 12.0 µM (≈ 35.9 µg/mL) | MIC (S. aureus strain 12, R (MRSA resistant to Oxacillin)): 6.0 µM (≈ 17.9 µg/mL) | MIC (S. aureus strain 13): 1.5 µM (≈ 4.49 µg/mL) | MIC (S. aureus strain 14, R (MRSA resistant to Oxacillin)): 6.0 µM (≈ 17.9 µg/mL) | MIC (S. aureus strain 15): 47.7 µM (≈ 143 µg/mL) | MIC (S. aureus strain 16, R (MRSA resistant to Oxacillin)): 23.9 µM (≈ 71.5 µg/mL) | MIC (S. aureus strain 17): 23.9 µM (≈ 71.5 µg/mL) | MIC (S. aureus strain 18): 23.9 µM (≈ 71.5 µg/mL) | MIC (S. aureus strain 19): 47.7 µM (≈ 143 µg/mL) | MIC (S. aureus strain 20): 12.0 µM (≈ 35.9 µg/mL) | MIC GM (geometric mean) (geometric mean of the MIC values from 20 different isolates of MRSA/SA): 15.7 µM (≈ 47 µg/mL)
